In patent US20220133651A1, “TREATMENT OF PITT-HOPKINS SYNDROME” (HEALX LTD, priority 2019, published 2022):
Entries after “also recorded” stand apart in the source; their conditions may differ. Counter-ions that a name gives are not always drawn.

How the values were obtained:
[1] = cited from earlier work
[2] = tested on: Tcf4+/− mice; assay: Dose response experiments in behavioural tests (Study 2); assay type: in vivo, mouse
Description: Dose response experiments were conducted following the protocol described above. Amitriptyline rescued all the behavioral tests at 5 and 10 mg/kg.

[3] = tested on: Tcf4+/− mice; assay: Nesting (test of daily living); assay type: in vivo, mouse; settings: chronic treatment of Tcf4+/− mice
Source text: The Tcf4+1− mouse model has been developed to mimic PTHS and therefore assess potential treatments. The mice have deficits in hippocampus-dependent learning and memory, spatial working memory, sociability, stereotypy, hyperactivity and daily living paradigms. […] Mice were purchased from The Jackson Laboratory and maintained on a C57BL/6 background. They were raised on a 12:12 light:dark cycle with ad libitum access to food and water. Controls consisted of TCF4+1+. All mice used were heterozygous for the Tcf4 mutation because homozygous mutations result in embryonic/post-partum lethality. There were four treatment groups per compound in the study with 10 male mice used per treatment group (all at 14 weeks of age): Group 1: wild-type littermate mice treated with vehicle (WT+veh); Group 2: Tcf4+/−KO mice treated with vehicle (Tcf4+1−+veh), Group 3: WT+drug; and Group 4: Tcf4+1−+drug. The test was performed in individual cages. Normal bedding covered the floor to a depth of 0.5 cm. […] Mice were placed individually into the nesting cages 1 hr. before the dark phase, and the results were assessed the next morning. Nest building was scored on a 5 point scale. […] Data were analysed by two-way analysis of variance (ANOVA) followed by post-test comparisons where appropriate using Tukey's Multiple Comparison Test, Data are represented as the mean and standard error of the mean (SEM).

[4] = tested on: Tcf4+/− mice; assay: Open field (measure of hyperactivity); assay type: in vivo, mouse; settings: chronic treatment of Tcf4+/− mice
Source text: The Tcf4+1− mouse model has been developed to mimic PTHS and therefore assess potential treatments. The mice have deficits in hippocampus-dependent learning and memory, spatial working memory, sociability, stereotypy, hyperactivity and daily living paradigms. […] Mice were purchased from The Jackson Laboratory and maintained on a C57BL/6 background. They were raised on a 12:12 light:dark cycle with ad libitum access to food and water. Controls consisted of TCF4+1+. All mice used were heterozygous for the Tcf4 mutation because homozygous mutations result in embryonic/post-partum lethality. There were four treatment groups per compound in the study with 10 male mice used per treatment group (all at 14 weeks of age): Group 1: wild-type littermate mice treated with vehicle (WT+veh); Group 2: Tcf4+/−KO mice treated with vehicle (Tcf4+1−+veh), Group 3: WT+drug; and Group 4: Tcf4+1−+drug. The open-field apparatus was used to test hyperactivity. […] The number of squares entered by the whole body (locomotor activity) was counted. The movement of the mouse around the field was recorded with a video tracking device for 3 min (version NT4.0, Viewpoint). Data were analysed by two-way analysis of variance (ANOVA) followed by post-test comparisons where appropriate using Tukey's Multiple Comparison Test, Data are represented as the mean and standard error of the mean (SEM).

[5] = tested on: Tcf4+/− mice; assay: Sociability/Partition test (assessment of social anxiety); assay type: in vivo, mouse; settings: chronic treatment of Tcf4+/− mice
Source text: The Tcf4+1- mouse model has been developed to mimic PTHS and therefore assess potential treatments. The mice have deficits in hippocampus-dependent learning and memory, spatial working memory, sociability, stereotypy, hyperactivity and daily living paradigms. […] Mice were purchased from The Jackson Laboratory and maintained on a C57BL/6 background. They were raised on a 12:12 light:dark cycle with ad libitum access to food and water. Controls consisted of TCF4+1+. All mice used were heterozygous for the Tcf4 mutation because homozygous mutations result in embryonic/post-partum lethality. There were four treatment groups per compound in the study with 10 male mice used per treatment group (all at 14 weeks of age): Group 1: wild-type littermate mice treated with vehicle (WT+veh); Group 2: Tcf4+/-KO mice treated with vehicle (Tcf4+1-+veh), Group 3: WT+drug; and Group 4: Tcf4+1-+drug. In the three-chambered sociability task, a subject mouse was evaluated for its exploration of a novel social stimulus (novel mouse). […] The time spent exploring the novel mice was scored as exploration ratio. Data were analysed by two-way analysis of variance (ANOVA) followed by post-test comparisons where appropriate using Tukey's Multiple Comparison Test, Data are represented as the mean and standard error of the mean (SEM).

[6] = tested on: Tcf4+/− mice; assay: Fear conditioning (test of learning and memory); assay type: in vivo, mouse; settings: chronic treatment of Tcf4+/− mice
Source text: The Tcf4+1− mouse model has been developed to mimic PTHS and therefore assess potential treatments. The mice have deficits in hippocampus-dependent learning and memory, spatial working memory, sociability, stereotypy, hyperactivity and daily living paradigms. […] Mice were purchased from The Jackson Laboratory and maintained on a C57BL/6 background. They were raised on a 12:12 light:dark cycle with ad libitum access to food and water. Controls consisted of TCF4+1+. All mice used were heterozygous for the Tcf4 mutation because homozygous mutations result in embryonic/post-partum lethality. There were four treatment groups per compound in the study with 10 male mice used per treatment group (all at 14 weeks of age): Group 1: wild-type littermate mice treated with vehicle (WT+veh); Group 2: Tcf4+/−KO mice treated with vehicle (Tcf4+1−+veh), Group 3: WT+drug; and Group 4: Tcf4+1−+drug. Tcf4+/− mice show reduced freezing in the context of clued fear conditioning test indicating hippocampus-dependent memory and learning deficiency. […] Data were analysed by two-way analysis of variance (ANOVA) followed by post-test comparisons where appropriate using Tukey's Multiple Comparison Test, Data are represented as the mean and standard error of the mean (SEM).

[7] = tested on: Tcf4+/− mice; assay: Self-grooming (assessment of stereotypy); assay type: in vivo, mouse; settings: chronic treatment of Tcf4+/− mice
Source text: The Tcf4+1− mouse model has been developed to mimic PTHS and therefore assess potential treatments. The mice have deficits in hippocampus-dependent learning and memory, spatial working memory, sociability, stereotypy, hyperactivity and daily living paradigms. […] Mice were purchased from The Jackson Laboratory and maintained on a C57BL/6 background. They were raised on a 12:12 light:dark cycle with ad libitum access to food and water. Controls consisted of TCF4+1+. All mice used were heterozygous for the Tcf4 mutation because homozygous mutations result in embryonic/post-partum lethality. There were four treatment groups per compound in the study with 10 male mice used per treatment group (all at 14 weeks of age): Group 1: wild-type littermate mice treated with vehicle (WT+veh); Group 2: Tcf4+/−KO mice treated with vehicle (Tcf4+1−+veh), Group 3: WT+drug; and Group 4: Tcf4+1−+drug. […] Usually in a sitting position, the mouse will lick its fur, groom with the forepaws, or scratch with any limb. Often the mouse will mix all of these grooming behaviors. […] Data were analysed by two-way analysis of variance (ANOVA) followed by post-test comparisons where appropriate using Tukey's Multiple Comparison Test, Data are represented as the mean and standard error of the mean (SEM).

[8] = tested on: Tcf4+/− mice; assay: Test of Force (hind limb grip strength); assay type: in vivo, mouse; settings: chronic treatment of Tcf4+/− mice
Source text: The Tcf4+1− mouse model has been developed to mimic PTHS and therefore assess potential treatments. The mice have deficits in hippocampus-dependent learning and memory, spatial working memory, sociability, stereotypy, hyperactivity and daily living paradigms. […] Mice were purchased from The Jackson Laboratory and maintained on a C57BL/6 background. They were raised on a 12:12 light:dark cycle with ad libitum access to food and water. Controls consisted of TCF4+1+. All mice used were heterozygous for the Tcf4 mutation because homozygous mutations result in embryonic/post-partum lethality. There were four treatment groups per compound in the study with 10 male mice used per treatment group (all at 14 weeks of age): Group 1: wild-type littermate mice treated with vehicle (WT+veh); Group 2: Tcf4+/−KO mice treated with vehicle (Tcf4+1−+veh), Group 3: WT+drug; and Group 4: Tcf4+1−+drug. Tcf4+/− mice show a significant deficit in hindlimb strength (not forelimb) when compared with WT mice. Neuromuscular function of the hindlimbs was tested with a grip strength meter (San Diego Instruments). […] The force applied to the grid at the moment the grasp was released was recorded. Data were analysed by two-way analysis of variance (ANOVA) followed by post-test comparisons where appropriate using Tukey's Multiple Comparison Test, Data are represented as the mean and standard error of the mean (SEM).

Compound	solubility in water [1]	all the behavioral tests (dose response) ([2]; 5 mg/kg)	all the behavioral tests (dose response) ([2]; 10 mg/kg)	nesting (tests of daily living) [3]	open field (hyperactivity) [4]	sociability (social anxiety) [5]	fear conditioning (learning and memory) [6]	self-grooming (stereotypy) [7]	test of force (strength) [8]
CN(C)CCC=C1c2ccccc2CCc2ccccc21 [amitriptyline HCL, 3-(10,11-dihydro-5H-dibenzo [ad]cycloheptene-5-ylidene)-N,N-dimethyl-1-propanamine hydrochloride]	freely soluble	–	–	–	–	–	–	–	–
CN(C)CCC=C1c2ccccc2CCc2ccccc21 [amitriptyline]	–	rescued	rescued	significantly improved; also recorded: rescuing	significantly improved; also recorded: rescuing	significantly improved; also recorded: rescuing	significantly improved; also recorded: rescuing	significantly improved; also recorded: rescuing	significantly improved; also recorded: rescuing
